Laboratory results published in US5801260A, “Carbonothioate phospholipid analogs as substrate of phospholipases and lipases” (priority 1995, dated 1998).

What was measured:
[1] = target: T1, cobra venom phospholipase A2 (Naja atra, UniProt P00598); experiment: Inhibition of phospholipase A2 by a reversible inhibitor, carbonothioate assay; format: biochemical; conditions: substrate 1-decanoyl-2-octylcarbonothioyl-sn-glycero-3-phosphocholine 0.5 mM, standard buffer with 4.24 mM Triton X-100; inhibitor 1 μM to 20 μM; FIG. 8
T1 construct: cobra venom phospholipase A2 (Naja naja atra); from tissue; host or cells: venom of Naja naja atra
T1 sequence (P00598 28-146 limits assumed): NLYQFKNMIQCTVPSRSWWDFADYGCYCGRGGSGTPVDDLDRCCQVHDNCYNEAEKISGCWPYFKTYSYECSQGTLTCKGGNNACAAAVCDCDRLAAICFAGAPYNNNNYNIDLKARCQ
Experimental: (§1) (b) Method: The desired amount of carbonothioate phospholipid in methylene chloride was evaporated to dryness under a stream of nitrogen. An appropriate volume of buffer A is added. This solution was sonicated in a bath sonicator to clearness. The assay was carried out at 40° C. A cuvette, containing 0.3 mL of assay mixture and 5 μL of DTNB was placed in the compartment of a spectrophotometer thermostated at 40° C. After equilibration of the substrate for 2 min at 40° C., a stable baseline was recorded for 150 sec. To initiate the reaction, cobra venom phospholipase A2 (Naja naja atra) (5 μL containing 125 ng protein in buffer B) was added to the cuvette and the reaction was recorded spectrophotometrically at 412 nm for 150 sec. The phospholipase activity is calculated using the extinction coefficient of 12,000 M^-1 cm^-1. Between each run, the cuvette is rinsed with Clorox, water and acetone.
Method: The appropriate volume of carbonothioate phospholipid in methylene chloride was dried under a stream of nitrogen. […] The enzymatic activity was determined similarly to Example 5 except that 500 ng enzyme was used.
A solution of 1-decanoyl-2-octylcarbonothioyl-sn-glycero-3-phosphocholine (1.0 mM) in buffer C was prepared as in Example 6. […] The enzymatic activity in the presence of the amide analog was determined as in Example 6.

[2] = target: T1, cobra venom phospholipase A2; experiment: Inactivation of phospholipase A2 by an irreversible inhibitor, carbonothioate assay of residual activity; format: biochemical; conditions: enzyme preincubated with 100 μM inhibitor at 40° C.; substrate 1-decanoyl-2-octylcarbonothioyl-sn-glycero-3-phosphocholine 0.5 mM, 4.24 mM Triton X-100; FIG. 9
Experimental: as §1
Method: The appropriate volume of carbonothioate phospholipid in methylene chloride was dried under a stream of nitrogen. To prepare mixed micelles, the appropriate volume of buffer C was added, and the volume was brought to the final volume with buffer B. This solution was bath-sonicated to obtain a clear solution. The enzymatic activity was determined similarly to Example 5 except that 500 ng enzyme was used. […]

SMILES	inhibition of cobra venom phospholipase A2 as determined by the carbonothioate assay [1]	inhibition of cobra venom phospholipase A2 as followed by the carbonothioate assay [2]
CCCCCCCCCCCCCCCCSC[C@H](COP(=O)([O-])OCC[N+](C)(C)C)NC(=O)CCCCCCCCCCCCCCC [amide substrate analogs, 1-hexadecyl-thio-2-hexadecanoylamino-1,2-dideoxy-sn-glycero-3-phosphocholine]	inhibition	
CCCCCCCCCC(=O)OCC(COP(=O)([O-])OCC[N+](C)(C)C)OC(=O)CC(C)(C)CC(=O)Oc1ccc([N+](=O)[O-])cc1 (centres unmarked) [irreversible inhibitor]		time-dependent inhibition
